Values of other authors, collected in patent US8097644B2, “Indole compounds having sphingosine-1-phosphate (S1P) receptor antagonist” (Allergan, Inc., priority 2006, dated 2012).

What was measured:
[1] = system: cardiac G protein-gated potassium channel IKACh; settings: whole-cell recordings
perfused porcine eyes = perfused porcine eyes (IOVS 45, 2263; 2004)

Structure (SMILES) | myocytes responding to acetylcholine in which an inwardly rectifying potassium current was evoked [1] [%] | decrease of outflow facility (perfused porcine eyes) [%]
CCCCCCCCc1ccc(CC[C@](N)(CO)COP(=O)(O)O)cc1 [FTY720-P] | ~90 | 
CCCCCCCCCCCCC/C=C/[C@@H](O)[C@@H](N)COP(=O)(O)O [Example S1P, Sphingosine-1-Phosphate] |  | > 30
